Consider 8 compounds from patent US20050137172A1, “Haloacetamide and azide substituted compounds and methods of use thereof” (priority 2003, published 2005).

A word on the melting point: it is the temperature, or range, at which the solid turns liquid. Usually IC50 stands for the concentration that inhibits the measured activity by half.

Like-named read-outs stand apart in the source and are kept apart here. A value given as a limit tells only on which side of the number the result lay.

One series concerns DU145. The experiment in a line: Cell growth inhibition (sulforhodamine B assay). In kind it is cell-based. The note with it: Homo sapiens, DU-145, 96 h, read-out: IC50 DU145. Here is the method:
(§1) Prostate cancer cell lines were obtained from ATCC. All cells were grown in RPMI-1640 medium containing 2 mM L-glutamine supplemented with 10% fetal bovine serum (FBS) and maintained in a 5% CO2/95% air humidified atmosphere at 37° C.
(§2) Cells were plated on 96-well plates and incubated with drug-containing culture medium (200 μL/well) for 4 (DU 145, PC-3, PPC-1, and TSU) or 6 (LNCaP) days. Medium was replaced with freshly prepared batches every other day during the incubation. At the end of drug treatment, an aliquot of 50 μL of cold (4° C.) trichloroacetic acid (TCA, 50%) was gently layered on the top of growth medium in each well to make a final TCA concentration of 10%. The mixtures were incubated at 4° C. for 1 hour, and then washed 5 times with tap water to remove TCA, growth medium, low-molecular-weight metabolites, and serum proteins. The plates were air dried overnight. Next, fixed cells were stained with 50 μL of SRB solution (0.4%, wt/vol) for 10 minutes. After staining, SRB solution was decanted, and plates were quickly rinsed 5 times with 1% acetic acid to remove unbound dye and air dried overnight. The cellular protein-bound SRB was then dissolved with 200 μL unbuffered Tris base (10 mM, pH 10.5) for 30 minutes on a rocking platform shaker, and absorbance at 540 nm was measured by a plate reader.
(§3) Percentage of cell survival was calculated by absorbance at 540 nm in testing wells divided by absorbance in negative control wells (medium without the test compound). Percentages of cell survival versus drug concentrations were plotted and the concentration of drug that inhibited cell growth by 50% (IC50) was determined by nonlinear regression using WinNonlin (Pharsight Corporation, Mountain View, Calif.).
(§4) METHODS: LNCaP, DU145, PC-3, TSU, and PPC-1 cells were cultured in 96-well plates and treated with increasing concentrations of the compound of interest for 4 days. Cell survival was determined by the sulforhodamine B assay and was plotted as a percentage of control (drug-free wells) versus drug concentration. The concentration of drug that inhibited cell growth by 50% (IC50) was determined by nonlinear regression. Known anticancer drugs were used as cytotoxic positive controls.
In general terms: Sulforhodamine B stains cellular protein and so reports cell mass.

A further series concerns LNCaP. Kind of series: Cell growth inhibition (sulforhodamine B assay). It is filed as cell-based. To be noted: Homo sapiens, read-out: IC50 LNCaP. Here is the method: as §1, §2, §3, §4
Another series deals with PC-3. The experiment in a line: Cell growth inhibition (sulforhodamine B assay). It is filed as cell-based. To be noted: Homo sapiens, PC-3, 96 h, read-out: IC50 PC-3. How it is done:
as §1, §2, §3, §4

For another series, the system named is PPC-1. The experiment in a line: Cell growth inhibition (sulforhodamine B assay). In kind it is cell-based. The note with it: Homo sapiens, PPC-1, 96 h, read-out: IC50 PPC-1. Here is the method:
as §1, §2, §3, §4

Another series has as its system TSU. Kind of series: Cell growth inhibition (sulforhodamine B assay). In kind it is cell-based. The note with it: Homo sapiens, 96 h, read-out: IC50 TSU. Here is the method:
as §1, §2, §3, §4

Series [1] deals with LNCaP cells. Kind of series: Growth curve (trypan blue cell count, 120 h). It is filed as cell-based, human. How it is done:
(§5) MATERIALS: DMSO is the vehicle control and the solvent for Compound A and Compound B.
(§6) METHODS: Cells were plated at 5-10×10^4 cells/well in five 6-well plates and incubated at 37° C., 5% CO2 for 24 h to allow the cells sufficient time to attach and be in log phase growth at the start of the experiment. The media was aspirated from four of the plates and replaced with media containing vehicle control (DMSO) or drug dissolved in DMSO. The total volume of DMSO/drug added to each well was equal to 0.1% of the media volume in each well. LNCaP, PC-3, MCF-7, and CV-1 cells were treated with vehicle control, and increasing concentrations of Compound A and Compound B (0.01, 0.05, 0.1, 0.5, 1.0, 5.0, and 10.0 μM). Three wells were treated with the same concentration of the drugs or DMSO for each treatment condition listed above. The cells from the remaining 6-well plate were collected and counted to determine plating efficiency. The 6-well plates containing DMSO/drug were incubated for 120 h at 37° C., 5% CO2. After 120 h, the media from each well was collected along with trypsinized cells and centrifuged at 150×g for 4 min. The cells were resuspended in 1 mL of media, from which 90 μl was taken and combined with 10 μl trypan blue for counting on a hemacytometer.

Another series relates to MCF-7 cells. Kind of series: Growth curve (trypan blue cell count, 120 h). In kind it is cell-based. The note with it: FIG. 2B. Here is the method:
as §5, §6

In series [2] the test system is LNCaP cells. Kind of series: TUNEL assay (apoptosis, DNA fragmentation). It is filed as cell-based, human. The note with it: LNCaP cells exposed for 24 hours, relative to 0.1% DMSO vehicle control. Here is the method: MATERIALS: In Situ Cell Death Detection Kit, Fluorescein (Roche).
METHODS: DNA fragmentation of apoptotic cells was monitored by the TUNEL assay as described by the supplier. Briefly, LNCaP cells were plated at 2×10^5 cells/well in 2-well chamber slides and incubated at 37° C., 5% CO2 for 24 h to allow the cells sufficient time to attach and be in log phase growth at the start of the experiment. The media was aspirated and replaced with media containing vehicle control (DMSO) or drug dissolved in DMSO. The total volume of DMSO/drug added to each well was equal to 0.1% of the media volume in each well. LNCaP cells were treated with vehicle control, and increasing concentrations of Compound A and Compound B ([…]) for 24-48 h. Two wells were treated with the same concentration of the drugs or DMSO for each treatment condition listed above. The media was collected along with the trypsinized cells and centrifuged at 150 ×g for 4 min. The cells were resuspended in 50 μl PBS, pipetted onto poly-lysine coated slides, and then fixed in 4% methanol-free formaldehyde in PBS (H 7.4) for 25 min at 4° C. Cells were permeabilized in 0.2% Triton X-100 in PBS for 5 min at room temperature. […] Green and red fluorescence emissions were observed microscopically using 520 nm and >620 nm filters, respectively.

Series [3] relates to five prostate cancer cell lines. The experiment in a line: Cell growth inhibition (sulforhodamine B assay), all five lines together. It is filed as cell-based, human. To be noted: for IC50 values in inhibiting the growth of all of five prostate cancer cell lines: DU 145, PC-3, TSU, PPC-1, LNCaP; for IC50s from one-day treatment versus 4 or 6 days treatment: comparison of treatment durations. Here is the method:
as §1, §2, §3, §4

[4] abbreviates: sulforhodamine B assay, 4 days treatment.
Where [5] appears, read: sulforhodamine B assay, 4 or 6 days treatment.

The compound `C[C@](O)(COc1ccc(N2C(=O)C=CC2=O)cc1)C(=O)Nc1ccc([N+](=O)[O-])c(C(F)(F)F)c1` (hydrate or solvate) returned a melting point of 82 to 84 °C.
The compound `C[C@](O)(COc1ccc(NC(=O)C(Cl)(Cl)Cl)cc1)C(=O)Nc1ccc([N+](=O)[O-])c(C(F)(F)F)c1` (hydrate or solvate) yielded a melting point of 59 to 61 °C.
`N[C@@H](Cc1ccc(N(CCCl)CCCl)cc1)C(=O)O` [Melphalan, reference compound]: the IC50 in the series on DU145 amounted to 31000 ± 4800 nM; with LNCaP, 10300 ± 100 nM; in the series on PC-3, 30.4 ± 3.1 µM; in the series with PPC-1, 16.2 ± 1.8 µM; in the series on TSU it was 4000 ± 200 nM.
In the case of `C[C@](O)(COc1ccc(NC(=O)CCl)cc1)C(=O)Nc1ccc([N+](=O)[O-])c(C(F)(F)F)c1` [Compound B], the IC50 was 900 ± 100 nM with DU145 (setting [4]); 4400 ± 800 nM in the series with LNCaP (setting [5]); 4.2 ± 0.2 µM in the series with PC-3 (setting [4]); 1.8 ± 0.1 µM with PPC-1 (setting [4]); 1400 ± 400 nM in the series with TSU (setting [4]). Moreover, the “Sensitivity of LNCaP cells relative to PC-3 or CV-1 cells” value with LNCaP cells [1] (growth curve, FIG. 2B) is “approximately 10 fold”. The “Concentration at which MCF-7 cells are sensitive” value in the series with MCF-7 cells was greater than 5 µM. The “Apoptosis (green fluorescence, fragmented DNA) in TUNEL assay” value in the series with LNCaP cells [2] is given as “similar”. Besides, the “IC50 values in inhibiting the growth of all of five prostate cancer cell lines” value in [3] is “low micro-molar range”. In series [3], the “IC50s from one-day treatment versus 4 or 6 days treatment” value is on record as “did not show significant difference”.
Take `C[C@](O)(COc1ccc(NC(=O)CBr)cc1)C(=O)Nc1ccc([N+](=O)[O-])c(C(F)(F)F)c1` [Compound A]: the IC50 in the series with DU145 (setting [4]) is 1300 ± 300 nM; in the series with LNCaP (setting [5]), 1100 ± 200 nM; with PC-3 (setting [4]), 2.41 ± 0.6 µM; in the series with PPC-1 (setting [4]), 1.1 ± 0.1 µM; in the series on TSU (setting [4]) it was 400 ± 300 nM. Also, the “Growth inhibitory activity across cell lines (selectivity)” value in the series with LNCaP cells [1] (LNCaP versus PC-3, MCF-7 and CV-1 cells, FIG. 2A) was “non-selective growth inhibitory activity”. Besides, the “Apoptosis (green fluorescence, fragmented DNA) in TUNEL assay” value in the series with LNCaP cells [2] was “exhibit green fluorescence”. In addition, the “IC50 values in inhibiting the growth of all of five prostate cancer cell lines” value in series [3] is “low micro-molar range”. For the same compound, the “IC50s from one-day treatment versus 4 or 6 days treatment” value in series [3] is on record as “did not show significant difference”.
`C[C@](O)(COc1ccc(NC(=O)CI)cc1)C(=O)Nc1ccc(C#N)c(C(F)(F)F)c1` (hydrate or solvate) returned a melting point of 78 to 80 °C.
Still for that read-out and setting: for `C[C@](O)(COc1ccc(NC(=O)C(F)(F)F)cc1)C(=O)Nc1ccc([N+](=O)[O-])c(C(F)(F)F)c1` the value was 58 to 60 °C.
For `O=c1[nH]cc(F)c(=O)[nH]1` [Compound 5-FU, fluorouracil, reference compound], the IC50 in the series on DU145 (setting [4]) worked out at 2600 ± 900 nM; in the series with LNCaP (setting [5]), 900 ± 300 nM; with PC-3 (setting [4]), 12.1 ± 0.9 µM; with PPC-1 (setting [4]), 5.5 ± 0.3 µM; with TSU (setting [4]), 2900 ± 900 nM.
